Results as given in ChEMBL document CHEMBL3286375, “Total synthesis and antiplasmodial activity of pohlianin C and analogues” (Bioorg Med Chem Lett, 2014).
pIC50: −log10 of the molar value. Non-standard residues stand in square brackets, D forms with d. Residues, ends and D or L forms follow the SMILES beside them. 3Amb = NCc1cccc(C(=O)O)c1; 4Abz = Nc1ccc(C(=O)O)cc1; Ava = NCCCCC(=O)O

Tests used:
[1] = test system: Plasmodium falciparum; experiment: Antiplasmodial activity against asexual blood stage chloroquine-sensitive Plasmodium falciparum 3D7 assessed as parasite growth inhibition at 40 uM by image-based assay relative to control; format: functional
[2] = test system: Plasmodium falciparum; experiment: Antiplasmodial activity against Plasmodium falciparum assessed as parasite growth inhibition; format: functional, organism-based
[3] = test system: Plasmodium falciparum; experiment: Antiplasmodial activity against asexual blood stage chloroquine-sensitive Plasmodium falciparum 3D7 assessed as parasite growth inhibition by image-based assay; format: functional, organism-based
[4] = test system: Plasmodium falciparum; experiment: Antiplasmodial activity against asexual blood stage chloroquine-sensitive Plasmodium falciparum 3D7 assessed as parasite growth inhibition at 2 uM by image-based assay relative to control; format: functional

Row | Compound | inhibition at 40 µM [1] [%] | pIC50 [2] | pIC50 [3] | inhibition at 2 µM [4] [%]
1 | CC[C@H](C)[C@@H]1NC(=O)[C@H]([C@@H](C)O)NC(=O)CNC(=O)CNC(=O)[C@H](Cc2ccccc2)NC(=O)CNC(=O)[C@H](Cc2ccccc2)NC(=O)[C@H]([C@@H](C)CC)NC1=O (cyclo(FGFGGTII)) | 78 | 4.80 | 4.60 | 
2 | CC(C)C[C@@H]1NC(=O)CNC(=O)[C@H](CC(C)C)NC(=O)[C@@H]2CCCN2C(=O)[C@H](Cc2ccc(O)cc2)NC(=O)[C@H](CC(C)C)NC(=O)[C@H](CC(C)C)NC1=O (cyclo(GLLLYPL)) |  | 4.60 |  | 
3 | CC(C)C[C@@H]1NC(=O)[C@H](CC(C)C)NC(=O)[C@H](C(C)C)NC(=O)CNC(=O)[C@H](CC(C)C)NC(=O)[C@@H]2CCCN2C(=O)[C@H](Cc2ccc(O)cc2)NC1=O (cyclo(GVLLYPL)) |  | 4.24 |  | 
4 | CC[C@H](C)[C@@H]1NC(=O)[C@H]([C@@H](C)O)NC(=O)c2cccc(c2)CNC(=O)[C@H](Cc2ccccc2)NC(=O)CNC(=O)[C@H](Cc2ccccc2)NC(=O)[C@H]([C@@H](C)CC)NC1=O (cyclo([3Amb]TIIFGF)) | 86 |  | 5.40 | 
5 | CC[C@H](C)[C@@H]1NC(=O)[C@H]([C@@H](C)O)NC(=O)c2ccc(cc2)NC(=O)[C@H](Cc2ccccc2)NC(=O)CNC(=O)[C@H](Cc2ccccc2)NC(=O)[C@H]([C@@H](C)CC)NC1=O (cyclo([4Abz]TIIFGF)) | 12 |  |  | 
6 | CC[C@H](C)[C@@H]1NC(=O)[C@H]([C@@H](C)O)NC(=O)CCCCNC(=O)[C@H](Cc2ccccc2)NC(=O)CNC(=O)[C@H](Cc2ccccc2)NC(=O)[C@H]([C@@H](C)CC)NC1=O (cyclo([Ava]TIIFGF)) | 87 |  | 4.64 | 
7 | C[C@@H]1CC[C@H]2[C@@H](C)C(=O)O[C@@H]3O[C@@]4(C)CC[C@@H]1[C@]32OO4 [ARTEMISININ] |  |  | 7.89 | 100
